Experimental findings from patent US20250127824A1, “BACTERIAL STRAIN USED IN THE PREVENTION AND/OR TREATMENT OF INFLAMMATORY PATHOLOGIES” (VERB BIOTICS, priority 2021, published 2025) are described below.

One experiment relates to JAK/STAT pathway. The experiment in a line: JAK/STAT luciferase reporter in IFN-γ-stimulated HT-29 cells, supernatant with or without Tofacitinib. It counts as cell-based. The note with it: 10% supernatant, Tofacitinib 1 μM, 6 h. How it is done:
HT-29 cells at a density of 3×10^5 cells/well, in 24-well plate, were transfected according to a reverse-transfection protocol, with 200 ng of pGL4 luc2P GAS-RE (IFN-γ-dependent JAK/STAT signaling pathway) and 10 ng of pRL-TK vector (Promega), using X-tremeGENE HP DNA transfection reagent with a 3:1 ratio (Roche). To summarize, the reactive/DNA transfection complexes were prepared in a final volume of 50 μl of McCoy's 5A without serum and without antibiotic, the appropriate amount of each plasmid was added and homogenized, and then the transfection agent was added (3:1). The transfection complexes were carefully mixed and incubated at room temperature for 15 minutes. After incubation, the transfection complexes were added to the freshly resuspended HT-29 cells at the appropriate density in McCoy's 5A medium supplemented with 10% FCS, and then the cell/transfection complex mixtures were gently homogenized and placed on plates. The plates were incubated for 24 h in a humid atmosphere at 5% C02 and the medium was then replaced with medium at 2% FCS for 12 h, after washing with PBS IX. […]
The activity of the luciferase Firefly was read. Then 50 μl reagent Stop&Glo was added and the measurement of the Renilla activity was read with the FLUOstar Omega plate reader (BMG Labtech). […]

Experiment [1] relates to HT-29 colon adenocarcinoma line. As to the kind of experiment: IL-8 secretion by TNF-α-stimulated HT-29 cells, supernatant with or without 5-ASA or Budesonide. The note with it: TNF-α 5 ng/ml, 6 h, 10% supernatant. Type of experiment: cell-based. Here is the method: The HT-29 cells (ECACC) were inoculated into 24-well plates at 3×10^5 cells per well in McCoy's 5A (Gibco) medium supplemented with 10% fetal calf serum (FCS, Gibco) and incubated at 37° C./5% […] for 24 h. The cells were washed with PBS-1× (Gibco) and cultivated for an additional 24 h in McCoy's 5A medium at 2% FCS. The cells were then stimulated for 6 hours with 5 ng/ml of TNF-α in the presence of 10% of supernatant in stationary phase of DSM 33715 or of bacterial culture medium as control (ctrl), whether or not in the presence of anti-inflammatory agents. 5-ASA (10 mM) and budesonide (20 μM) are molecules used in the treatment of inflammatory diseases, such as ulcerative colitis and Crohn's disease. After 6 h, the cell culture supernatants were collected and stored at −80° C. until the […] was quantified by ELISA. The IL-8 assay was carried out by BioLegend specific ELISA, according to the manufacturer's instructions. The absorbance at 460 nm was read using the FluoStar Omega microplate reader of BMG Labtech. Statistics: Sidak's multiple comparisons test. * p<0.05, ** p<0.01, *** […], **** p<0.0001. […]

Take `C[C@@H]1CCN(C(=O)CC#N)C[C@@H]1N(C)c1ncnc2[nH]ccc12` [Tofacitinib]: the “decrease in the IFN-γ-induced activation of the JAK/STAT pathway” value with JAK/STAT pathway is listed as 49%.
For `Nc1ccc(O)c(C(=O)O)c1` [5-ASA], the “secretion of IL-8 reduced relative to the control (Panel A)” value in experiment [1] (5-ASA 10 mM) is 38%.
On to `CCCC1O[C@@H]2C[C@H]3[C@@H]4CCC5=CC(=O)C=C[C@]5(C)[C@H]4[C@@H](O)C[C@]3(C)[C@]2(C(=O)CO)O1` (stereo partly drawn) [Budesonide], for which the “secretion of IL-8 reduced relative to the control (Panel B)” value in experiment [1] (budesonide 20 μM) turned out to be 38%.
